Measurements as given in US10869924B2, “PD-L1 antagonist combination treatments” (MERCK PATENT GMBH, priority 2015, dated 2020).

What was measured:
[1] = in vivo; cited from earlier work
[2] = test system: MC38 colon carcinoma; test: Subcutaneous MC38 colon carcinoma model, anti-4-1BB and avelumab (Example 3); format: in vivo; conditions: anti-4-1BB 0.1 mg/mL, avelumab 1 mg/mL, 0.2 mL per mouse ip, 3 doses 3 to 4 days apart, C57BL/6 mice
Experimental: Six (6)- to 8-week old female C57BL/6 mice were purchased from the Jackson Laboratories. All animals were housed in a pathogen free vivarium facility at Rinat and experiments were conducted according to the protocols in accordance with the Institutional Animal Care and Use Committee (IACUC) guidelines.
The B16F10 melanoma cell line was purchased from American Type Culture Collection (ATCC). The MC38 colon carcinoma cell line was kindly provided by Dr. Antoni Ribas at University of California, Los Angeles, Calif. Cells were cultured in Dulbecco's Modified Eagle's Medium (DMEM) supplemented with 10% fetal bovine serum (FBS), 2 mM L-glutamine at 37° C. in 5% carbon dioxide (CO2), and IMPACT-tested for pathogens at Research Animal Diagnostic Laboratory (RADIL) (Columbia, Mo.). Pathogen-free cells growing in an exponential growth phase were harvested and used for tumor inoculation.
Therapeutic mouse anti-mouse 4-1BB mAb (mouse immunoglobulin G1 [mIgG1]), derived from the parental clone MAB9371 (R&D Systems), was prepared in-house. Avelumab was provided by Merck Serono. Isotype control mIgG1 (clone: MOPC-21) was purchased from BioXcell. Human IgG1 was prepared in-house. Anti-4-1BB and avelumab were diluted to concentrations of 0.1 mg/mL and 1 mg/mL, respectively, in phosphate buffered saline (PBS) (Life Technologies), and dosed at 0.2 mL per mouse intraperitoneally (ip) for 3 doses 3 to 4 days apart.
C57BL/6 mice were inoculated subcutaneously at the right flank with 0.2×10^6 B16F10 or 0.5×10^6 MC38 cells in 0.1 mL of serum-free DMEM. When tumors reached target size, mice were randomized into treatment groups. Treatment was started on the same day as randomization. Tumor size was measured twice weekly in 2 dimensions using a caliper, and the volume was expressed in cubic millimeters using the formula: V=0.5 L×W^2 where L is the longest diameter of the tumor and W is the diameter perpendicular to L. Body weight was recorded weekly.
Results were expressed as mean±SEM. Statistical analyses were performed using GraphPad Prism 6.0. One-way or 2-way ANOVA was applied to compare the statistical differences among multiple groups relative to the isotype control. P<0.05 was considered as significant difference.
In the MC38 colon carcinoma model, the average starting tumor size was approximately 60 mm^3 (range 41-92 mm^3; n=10 animals per group) (Table 6). At the end of study (Day 23 post tumor implantation), the average tumor volumes of isotype, anti-4-1BB alone, avelumab alone, and anti-4-1BB antibody/avelumab combination groups were 1177±252 mm^3, 1093±183 mm^3, 901±206 mm^3, and 530±190 mm^3, respectively (Table 6). The reduction in tumor size by the combination treatment was significant, compared to the isotype control (p<0.001) and 4-1BB alone groups (p<0.01), but not to the avelumab group (p>0.05) (Table 6).

[3] = test system: MC38 tumors; test: Flow cytometry of tumor-infiltrating lymphocytes from MC38 tumors after treatment (Example 3); format: in vivo, mouse; conditions: TILs isolated from MC38 tumors after treatment
Text: Antibodies used for cell surface or intracellular staining were purchased from BD Biosciences or eBioscience. They were rat anti-mouse CD4-PerCP-Cy5.5 (clone RM4-5, BD Biosciences), rat anti-mouse CD8a-APC-H7 (clone 53-6.7, BD Biosciences), rat anti-mouse CD25-PE-Cy7 (clone PC61, BD Biosciences), rat anti-mouse CD45-BV510 (clone 30-F11, BD Biosciences), rat anti-mouse CD90.2-FITC (clone 53-2.1, BD Biosciences), rat anti-mouse Eomes-PE (clone: Dan11mag, eBioscience), rat anti-mouse FoxP3-eFluor450 (clone FJK-16s, eBioscience), and rat anti-mouse NKp46-BV421 or -AF647 (clone 29A1.4, BD Biosciences). Live cells were separated from dead cells using LIVE/DEAD Fixable Blue Dead Cell Stain Kit (Invitrogen). […]
An aliquot of cells was pre-incubated with 10 μg/mL of mouse BD Fc Block (BD Biosciences) for 10 minutes before phenotyping mAbs were added to specifically stain immune cells. […] After removing unbound mAbs, cells were washed twice with FACS staining buffer, fixed in fixative buffer (PBS+2% FBS+1% paraformaldehyde), and stored at 4° C. in the dark until analyzed by flow cytometry. […] Flow cytometry data were acquired using LSR Fortessa (BD Biosciences) and analyzed using FlowJo (TreeStar Inc.).
Results were expressed as mean±SEM. […]
Tumor-infiltrating lymphocytes (TILs) were isolated from MC38 tumors after treatment and analyzed for markers associated with anti-tumor immune response. […]

## Avelumab: fully human mAb of the IgG1 isotype that specifically targets and blocks PD-L1
[1]
  half-life: 72 to 120 h
[2]; Day 7 post tumor implantation (starting tumor size)
  Tumor Measurements of Subcutaneous MC38 Colon Carcinoma, Mean tumor volume: 63 mm^3
[2]; Day 10 post tumor implantation
  Tumor Measurements of Subcutaneous MC38 Colon Carcinoma, Mean tumor volume: 127 mm^3
[2]; Day 14 post tumor implantation
  Tumor Measurements of Subcutaneous MC38 Colon Carcinoma, Mean tumor volume: 254 mm^3
[2]; Day 16 post tumor implantation
  Tumor Measurements of Subcutaneous MC38 Colon Carcinoma, Mean tumor volume: 384 mm^3
[2]; Day 18 post tumor implantation
  Tumor Measurements of Subcutaneous MC38 Colon Carcinoma, Mean tumor volume: 523 mm^3
[2]; Day 21 post tumor implantation
  Tumor Measurements of Subcutaneous MC38 Colon Carcinoma, Mean tumor volume: 714 mm^3
[2]; Day 23 post tumor implantation (end of study)
  Tumor Measurements of Subcutaneous MC38 Colon Carcinoma, Mean tumor volume: 901 mm^3
[2]; Day 23 post tumor implantation (end of study), listed as avelumab
  Tumor Measurements of Subcutaneous MC38 Colon Carcinoma, Mean tumor volume: 901±206 mm^3
[3]; FIG. 2
  ratio of CD8+ T cells/regulatory T cell (Treg): 2.5
[3]; average, FIG. 1
  T-cell frequency (of CD45+ cells) in tumors: 36%
